In test [1] the test system is PAF-induced lung eosinophil accumulation. Briefly: Inhibition of eosinophil accumulation (PAF-induced lung eosinophilia). It is filed as in vivo, Guinea-pigs (Dunkin-Hartley). As to conditions: Cavia porcellus, sc, 168 h, method C, over 7 days. The procedure: EXAMPLE C: INHIBITION OF EOSINOPHIL ACCUMULATION
Guinea-pigs (Dunkin-Hartley 400-600 g) are injected intraperitoneally with 10 μg/kg of PAF, a procedure which produces lung eosinophilia.
Animals are sacrificed with pentobarbital (100 mg/kg i.p.) 24 hours later. The trachea is exposed and cannulated and the airway lumen washed by introduction and aspiration of 10 ml aliquots (x6) of buffered modified Tyrode solution (composition mM: NaHCO3 11.9, NaCl 136.9, KCl 2.7, Na2 HPO4, glucose 5.6, EDTA 19.8; protein % w/v=gelatin 0.1, BSA 0.5; pH to 7.4 by addition of 2N NaOH). Total fluid recovery generally exceeds 80%.
Cell suspensions are concentrated by low speed centrifugation (200 g for 10 mins.) and the resulting cell pellet is resuspended in 1 ml modified Tyrode solution. Total cell counts are effected in a haemocytometer by diluting 10 μl cell suspension in 90 μl Turks fluid. Differential cell counts are made from smears fixed in 100% methanol and stained with Leishman stain. At least 500 cells smear are counted at 1000 fold magnification to differentiate cell types.
Test compound is administered over 7 days at varying concentration in 1 mg/kg s.c. amounts with exposure to PAF occurring 5 days after commencement of test compound administration. […]

Test [2] relates to guinea-pig tracheal ring preparations. Briefly: Bronchospasmolytic activity in vitro (relaxation of tracheal rings). As to conditions: Cavia porcellus; method A.1, guinea-pig tracheal rings in vitro. The source says: 1. Bronchospasmolytic activity in vitro
The trachea is excised from freshly sacrificed guinea-pigs (Dunkin-Hatley (350-500 g) and transected in the transverse plane to give rings of tissue of ca. 3-5 mm deep. Individual rings are mounted vertically on stainless steel supports, one of which is fixed at the base of an organ bath, the other being attached to an isometric transducer. The rings are bathed in Krebs solution (composition […]: NaHCO3 25, NaCl 113, KCl 4.7, MgSO4.7H2) 1.2, KHhd 2PO4 1.2, CaCl2 2.5, Glucose 11.7) at 37° C. and gassed with O2 /CO2 (95:5, v/v). Rings prepared in this manner, preloaded with 1 g, generate spontaneous tone and, after a period of equilibration (45-60 min.), relax consistently on addition of spasmolytic drugs. Tension can be enhanced by addition of carbachol (10^-6 M) or histamine (10^-4 M). To ascertain spasmolytic activity, test substances are dissolved in physiological saline and added in increasing quantities to the organ bath at 10 min. intervals to provide a cumulative concentration-effect curve.
In the above test model compounds of formula I and their pharmaceutically acceptable acid addition salts produce concentrationrelated relaxation of guinea-pig tracheal ring preparations irrespective of the contractile agency at concentrations of from about 10^-7 to about 10^-5 M.

For test [3], the system named is PAF-induced airways hyperreactivity. Briefly: Suppression of airways hyperreactivity, PAF-treated animals. As to conditions: Cavia porcellus, iv, method B. In kind it is in vivo, Guinea-pigs. The procedure:
Guinea-pigs are anesthetized and prepared for recording of lung function as described under example A.2. above. Intravenous injection of low dose bombesin (240 ng/kg) establishes airways sensitivity to spasmogens. Following infusion of PAF (platelet activating factor) over 1 hr.

The test system of test [4] is bombesin-induced bronchospasm. In words: Bronchodilator activity in vivo (reversal of bombesin-induced bronchospasm). Details: species or system Guinea pigs (Dunkin-Hartley). Conditions: Cavia porcellus, method A.2, intra. duodenally. The procedure: 2. Bronchodilator activity in vivo
Guinea pigs (Dunkin-Hartley, .male., 400-600 g) are anesthetized with phenobarbital (100-mg/kg i.p.) and pentobarbital (30 mg/kg i.p.) and paralyzed with gallamine (10 mg/kg i.m.). Animals are ventilated via a tracheal cannula (10 ml/kg, 1Hz.). Blood pressure and heart rate are recorded at the carotid artery. Ventilation is monitored by a Fleisch flow transducer in lien with the inspiratory circuit. When making measurements of flow, coincident pressure changes in the thorax are monitored directly via an intrathoracic trochar, permitting display of differential pressure relative to the trachea. From this information resistance and compliance are calculated at each inspiration.
Continuous intravenous infusion of bombesin (50-100 ng/kg/min) induces sustained bronchospasm. Capacity of test-substance to reverse response when administered intra-duodenally via a 12 gauge metal needle fixed by a purse string ligature into the peripheral end of the transected duodenum serves as a measure of efficacy in reversing established bronchospasm.
The bronchodilator response is taken as the percentage reduction of the maximal response to bombesin, measured at regular intervals, up to 64 mins..

This note sets out measurements from patent US4980359A, “Isoquinoline derivatives and their use” (Sandoz Ltd., priority 1988, dated 1990).

As usually defined, the ED50 is the dose at which the effect has come halfway, by size or by number of responders. In general, IC50 refers to the concentration that inhibits the measured activity by half. Read a high IC50 as weaker potency in that assay. Consider `COCCOc1cc(OCCOC)cc(-c2nc(C)cc3cc(OC)c(OC)cc23)c1` [Example 12, 3-methyl-6,7-dimethoxy-1-(3,5-dimethoxyethoxy-phenyl)-isoquinoline], for which the results for the median effective dose (ED50) in test [1], in test [3] and in test [4] were less than 2 mg/kg, less than 1 mg/kg and approximately 2 mg/kg, respectively. Further, 0.3 µM corresponded to half-maximal inhibition in test [2] (IC50).

In the case of `Cn1c(=O)c2[nH]cnc2n(C)c1=O` [Theophylline, theophylline], the ED50 in test [1] worked out at 5 mg/kg; in test [3], 5 mg/kg; in test [4], 11 mg/kg. Also, 77 µM corresponded to half-maximal inhibition in test [2] (IC50).
